{
  "source": "patent US20060128744A1",
  "about": "“Use of 5-HT6 agonist for the treatment and prevention of neurodegenerative disorders” (Wyeth, priority 2004, published 2006)",
  "key": {"[1]": {"test_system": "cerebellar granule neurons", "assay": "Oxygen glucose deprivation (OGD) in cerebellar granule neurons, LDH release", "type": "cell-based, rat", "settings": "4 h OGD, 24 h recovery", "description": "(§1) Cerebella isolated from P7 rat pup brains are cut into 1 mm pieces and transferred to a tube containing 0.3 mg/ml trypsin in HBSS. Following enzymatic digestion, the tissue is mechanically triturated. The supernatant is collected and centrifuged at 1200 rpm for 10 minutes. The resultant pellet is resuspended in complete media (Neurobasal, […], 0.5 mM L-glutamine, 100 U/ml penicillin, 100 μg/ml streptomycin, 10% FBS) and plated at a density of 0.5×10^6 cells/well in 24-well plates. After 24 h, media is exchanged with complete serum-free medial (Neurobasal, […], 0.5 mM L-glutamine, 100 U/ml penicillin, 100 μg/ml streptomycin, B-27 supplement).\nThis is a well characterized model of ischemia-like neuronal injury involving glutamate-induced excitotoxicity (A. Kaasik, et al, Neuroscience (2001) 102, pp427-432). Cultures are maintained for 14 days in vitro prior to experimentation. […] Following the 4 h OGD, deoxygenated buffer is exchanged with complete media. […] At the end of the 24-h period, cell death is determined by measuring lactate dehydrogenase (LDH) released into the media and is expressed as a percent of cell death. The results are shown in FIG. 3 and are presented as means±SD from 5 experiments. Sham bar represents results obtained with cultures subjected to manipulations and changes of culture media without OGD or drug treatment."}, "[2]": {"test_system": "cerebellar granule neurons", "assay": "Potassium withdrawal-induced apoptosis in cerebellar granule neurons, DNA fragmentation ELISA", "type": "cell-based, rat", "settings": "5 mM K+, 24 h", "description": "as §1\nPotassium withdrawal, i.e. replacement of […] in the CGN culture medium is a well established model of neuronal cell death by apoptosis (T. M. Miller and E. M. Johnson, Journal of Neuroscience, (1996) 16(23), pp7487-7495). Cultures are maintained for 7 days prior to experimentation. Complete media containing 25 mM K^+ is exchanged with complete media containing 5 mM K^+. […] After 24 h, apoptotic cell death is determined by measuring DNA fragmentation via ELISA. Apoptotic cell death is expressed as % apoptosis."}, "[3]": {"test_system": "neuron cultures from E16 rat embryos", "settings": "72 h", "description": "In this evaluation neuron cultures are prepared from E16 rat embryos. […] After a 72 h period, neuronal survival is determined by a neurofilament ELISA.\nThe data are expressed as total neurofilament content."}, "[4]": {"test_system": "cortical neuron cultures from E16 rat embryos", "settings": "72 h", "description": "In this evaluation cortical neuron cultures are prepared from E16 rat embryos. […] Neurite outgrowth is determined after a 72 h period by staining cells with a tubulin antibody (TUJ-1) and measuring neurite length with the Cellomics ArrayScan, using the Enhanced Neurite Outgrowth (ENO) algorithm. The data are expressed as total neurite length."}, "[5]": {"test_system": "brain derived neurotrophic factor (BDNF) protein in cortical neuron cultures", "assay": "BDNF protein levels in cultured cortical neurons, sandwich ELISA", "type": "cell-based, rat", "settings": "72 h in culture", "description": "In this evaluation cortical neuron cultures are prepared from E16 rat embryos and plated on pre-coated 10 cm Petri dishes. […] Levels of brain derived neurotrophic factor (BDNF) protein were measured after a 72 h period by lysing the cells and using a BDNF sandwich ELISA. More specifically, ELISA plates were coated with an anti-BDNF monoclonal antibody. Nonspecific binding was blocked and 50 μg of sample protein was added. A second anti-BDNF antibody was added and incubated. An anti-IgY antibody conjugated with horseradish peroxidase was added and incubated. A TMB solution was added and the colorimetric reaction was measured in a plate reader (absorbance of 450 nm). BDNF levels are quantified after 72 h in culture."}, "[6]": {"target": "T1, human cloned 5-HT6 receptors (Homo sapiens, UniProt P50406)", "T1 construct": "expressed in transfected cells; host or cells: HeLa cells (membrane preparation)", "T1 sequence (P50406 whole entry)": "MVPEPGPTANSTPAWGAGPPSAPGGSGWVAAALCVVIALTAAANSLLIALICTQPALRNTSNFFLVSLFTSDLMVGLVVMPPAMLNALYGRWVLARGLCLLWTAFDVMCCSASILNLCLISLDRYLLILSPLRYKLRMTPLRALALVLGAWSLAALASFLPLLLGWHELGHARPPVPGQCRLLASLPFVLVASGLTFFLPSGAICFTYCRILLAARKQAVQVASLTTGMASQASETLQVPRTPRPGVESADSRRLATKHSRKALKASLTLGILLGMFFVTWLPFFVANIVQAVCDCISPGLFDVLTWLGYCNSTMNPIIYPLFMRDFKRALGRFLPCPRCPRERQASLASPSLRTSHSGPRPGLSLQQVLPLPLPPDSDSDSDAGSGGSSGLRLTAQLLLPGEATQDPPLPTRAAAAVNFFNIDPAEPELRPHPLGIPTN", "assay": "5-HT6 binding affinity, [3H]-LSD displacement in membranes of Hela cells", "description": "The affinity of test compounds for the serotonin 5-HT6 receptor is evaluated in the following manner. Cultured Hela cells expressing human cloned 5-HT6 receptors are harvested and centrifuged at low speed (1,000×g) for 10.0 min to remove the culture media. The harvested cells are suspended in half volume of fresh physiological phosphate buffered saline solution and recentrifuged at the same speed. This operation is repeated. The collected cells are then homogenized in ten volumes of 50 mM Tris.HCl (pH 7.4) and 0.5 mM EDTA. The homogenate is centrifuged at 40,000×g for 30.0 min and the precipitate is collected. The obtained pellet is resuspended in 10 volumes of Tris.HCl buffer and recentrifuged at the same speed. The final pellet is suspended in a small volume of Tris.HCl buffer and the tissue protein content is determined in aliquots of 10-25 μl volumes. […] The volume of the suspended cell membranes is adjusted to give a tissue protein concentration of 1.0 mg/ml of suspension. […]\nThe bound complex caught on the filter disk is allowed to air dry and the radioactivity is measured in a Packard TopCount® equipped with six photomultiplier detectors, after the addition of 40.0 μl Microscint®-20 scintillant to each shallow well.\nBinding in the presence of varying concentrations of test compound is expressed as a percentage of specific binding in the absence of test compound. […]"}, "[7]": {"target": "T2, human 5-HT6 receptor stabily transfected into HELA cells (Homo sapiens, UniProt P50406)", "T2 construct": "expressed in transfected cells; host or cells: HeLa cells, stably transfected", "T2 sequence (P50406 whole entry)": "as above", "assay": "5-HT6 agonist activity using cAMP accumulation", "type": "cell-based", "description": "Upon initiation of the assay, the media from cell maintenance is aspirated and cells are preincubated at 37° C. for 15 mins. in KREBS buffer. Following this primary incubation, the buffer is aspirated and an additional incubation is performed at 37° C. for 5 mins. in KREBS buffer containing 500 uM IBMX (3-isobutyl-1-methylxanthine). […] The assay is terminated by the addition of 0.5M perchloric acid. […] Data are analyzed graphically with GraphPad Prism (GraphPad Software, San Diego, Calif.)."}},
  "data": [
    {"smiles": "NCCc1cn(S(=O)(=O)c2c(Cl)nc3sccn23)c2ccccc12", "note": "[Test Compound C]", "values": [
      {"measurement": "reduction of neuronal death", "setting": "[1]; 1 μM", "result": 50, "unit": "%"},
      {"measurement": "effect on OGD-induced neuronal cell death", "setting": "[1]; 1 h pretreatment", "result": "dose-dependent reduction of neuronal cell death"},
      {"measurement": "lowest concentration providing significant protection against OGD-induced cell death", "setting": "[1]; LDH release", "result": 10, "unit": "nM"},
      {"measurement": "reduction of apoptotic cell death", "setting": "[2]; 0.3 μM", "result": 50, "unit": "%"},
      {"measurement": "protection from apoptosis", "setting": "[2]; 3.0 μM", "result": "almost total protection from apoptosis"},
      {"measurement": "effect on amount of fragmented DNA (measure of apoptosis)", "setting": "[2]", "result": "significantly, and dose dependently, attenuated"}
    ]},
    {"smiles": "CN(C)CCn1cc(S(=O)(=O)c2cccc(F)c2)c2cccnc21", "note": "[Test Compound B, N-(2-{3-[(3-fluorophenyl)sulfonyl]-1H-pyrrolo[2,3-b]pyridin-1-yl}ethyl)-N,N-dimethylamine]", "values": [
      {"measurement": "neurofilament content compared to vehicle treated controls", "setting": "[3]", "result": "increases the neurofilament content"},
      {"measurement": "total neurite length compared to vehicle treated controls", "setting": "[4]", "result": "increased total neurite length"},
      {"measurement": "BDNF protein levels compared to vehicle treated control", "setting": "[5]", "result": "significantly increased BDNF protein levels"}
    ]},
    {"smiles": "COc1ccc(OC)c(S(=O)(=O)c2cn(CCN)c3ncccc23)c1", "note": "[Test Compound A, (2-{3-[(2,5-dimethoxyphenyl)sulfonyl]-1H-pyrrolo[2,3-b]pyridin-1-yl}ethyl)amine]", "values": [
      {"measurement": "Ki", "setting": "[6]", "result": 3.6, "unit": "nM"},
      {"measurement": "Emax", "setting": "[7]", "result": 95, "unit": "%"}
    ]}
  ]
}
